For eight compounds, TGI results are on record in PubChem BioAssay (NCI).

Some test systems named below: MALME-3M melanoma; COLO 205 colon; SF-268 CNS; MOLT-4 leukemia; SNB-19 CNS; HOP-92 NSCLC; NCI-H460 lung; SF-295 CNS; SF-539 CNS; CAKI-1 renal; LXFL 529 NSCLC; HOP-62 NSCLC; NCI-H23 lung; TK-10 renal; K-562 leukemia; IGROV1 ovarian.
Common to all, as to test: growth of human tumour cells (NCI), 48 h

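Five concentrations, 48 hours, 96-well plates. TGI denotes the concentration required for complete inhibition of growth.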

For the compound `CC(=O)NC(CCCNC(=O)NCCCl)C(=O)NCc1ccccc1` (centres undefined), the TGI in the assay on MALME-3M melanoma, in the assay on COLO 205 colon, in the assay with SF-268 CNS, with MOLT-4 leukemia, with SNB-19 CNS and in the assay on HOP-92 NSCLC was greater than 100 µM throughout. Moreover, the TGI with NCI-H460 lung, in the assay on SF-295 CNS, with SF-539 CNS, in the assay with CAKI-1 renal, in the assay on LXFL 529 NSCLC and in the assay on HOP-62 NSCLC was greater than 100 µM in each case. Also, the TGI with NCI-H23 lung, in the assay with TK-10 renal and in the assay with K-562 leukemia was greater than 100 µM each time.

On to `COc1ccc(NC(=O)CC(=O)N/N=C/c2ccc(N(CCC#N)S(=O)(=O)c3ccccc3)cc2)cc1`, for which the TGI in the assay on MALME-3M melanoma, in the assay on COLO 205 colon, in the assay with SF-268 CNS, with MOLT-4 leukemia, in the assay with SNB-19 CNS and with HOP-92 NSCLC was greater than 100 µM throughout. Moreover, the TGI in the assay on NCI-H460 lung, in the assay on SF-295 CNS, in the assay with CAKI-1 renal, in the assay with LXFL 529 NSCLC, with HOP-62 NSCLC and in the assay with NCI-H23 lung was greater than 100 µM in each case. In addition, the TGI with IGROV1 ovarian, with TK-10 renal and in the assay on K-562 leukemia was greater than 100 µM throughout.

As to `C/C(CC(=O)NC1=CC=C(NC(=O)C/C(C)=N\Nc2ccccc2)CC1)=N/Nc1ccccc1`, the TGI in the assay on MALME-3M melanoma, with COLO 205 colon, in the assay with SF-268 CNS, with MOLT-4 leukemia, in the assay on SNB-19 CNS and in the assay on HOP-92 NSCLC was greater than 100 µM throughout. Further, the TGI in the assay on NCI-H460 lung, with SF-295 CNS, in the assay with SF-539 CNS, in the assay on CAKI-1 renal, with LXFL 529 NSCLC and in the assay on HOP-62 NSCLC was greater than 100 µM in each case. Moreover, the TGI in the assay on NCI-H23 lung, in the assay on IGROV1 ovarian, with TK-10 renal and in the assay on K-562 leukemia was greater than 100 µM throughout.

For `CC(C)(Oc1ccc2c(=O)cc(-c3ccccc3)oc2c1)C(=O)Nc1c(Cl)cccc1Cl`, the TGI in the assay with MALME-3M melanoma, in the assay with SF-268 CNS, with MOLT-4 leukemia, with SNB-19 CNS, with HOP-92 NSCLC and in the assay with NCI-H460 lung was greater than 100 µM each time. Further, the TGI with SF-295 CNS, with SF-539 CNS, in the assay on CAKI-1 renal, with LXFL 529 NSCLC, in the assay on HOP-62 NSCLC and with NCI-H23 lung was greater than 100 µM throughout. Also, the TGI in the assay on IGROV1 ovarian, in the assay on TK-10 renal and with K-562 leukemia was greater than 100 µM throughout.

`CCc1cccc(CC)c1NC(=O)C1=C(C)NC(C)=C(C(=O)Nc2c(CC)cccc2CC)C1c1ccc2c(c1)OCO2`: the TGI in the assay on MALME-3M melanoma is 29.7 µM; with COLO 205 colon, 26.2 µM; in the assay with SF-268 CNS, 35.9 µM; in the assay with MOLT-4 leukemia, greater than 100 µM; in the assay on SNB-19 CNS, 33 µM; with HOP-92 NSCLC, 32.1 µM. For the same compound, the TGI in the assay on NCI-H460 lung came to 28.6 µM; in the assay with SF-295 CNS, 29.2 µM; with SF-539 CNS, 37.8 µM; in the assay with CAKI-1 renal it was 52 µM; with LXFL 529 NSCLC it was 29.3 µM; with HOP-62 NSCLC, 37.2 µM. The TGI in the assay on NCI-H23 lung is 32.8 µM; in the assay on IGROV1 ovarian, 44.2 µM; with TK-10 renal, greater than 100 µM; with K-562 leukemia, 38.2 µM.

For the compound `N#CC(C(=N/NC(N)=S)/C(=N/NC(N)=S)C(C#N)c1ccc(Cl)cc1)c1ccc(Cl)cc1` (centres undefined), the TGI in the assay with MALME-3M melanoma, in the assay on COLO 205 colon, in the assay on SF-268 CNS, in the assay with MOLT-4 leukemia, in the assay on SNB-19 CNS and in the assay with HOP-92 NSCLC was greater than 100 µM in each case. Further, the TGI in the assay with NCI-H460 lung, in the assay on SF-295 CNS, in the assay with SF-539 CNS, in the assay on LXFL 529 NSCLC, in the assay with HOP-62 NSCLC and in the assay with NCI-H23 lung was greater than 100 µM throughout. For the same compound, the TGI in the assay with IGROV1 ovarian, with TK-10 renal and with K-562 leukemia was greater than 100 µM in each case.

Turning to `Cn1nc2ccc3nccc(N(CCO)CCO)c3c2n1`, the TGI in the assay with MALME-3M melanoma, with COLO 205 colon, in the assay with SF-268 CNS, in the assay with MOLT-4 leukemia, in the assay with SNB-19 CNS and with HOP-92 NSCLC was greater than 100 µM throughout. Besides, the TGI in the assay on NCI-H460 lung, in the assay with SF-295 CNS, in the assay with SF-539 CNS, in the assay with CAKI-1 renal, in the assay with LXFL 529 NSCLC and in the assay with HOP-62 NSCLC was greater than 100 µM in each case. Besides, the TGI in the assay with NCI-H23 lung, in the assay on IGROV1 ovarian, in the assay on TK-10 renal and in the assay on K-562 leukemia was greater than 100 µM throughout.

On to `CCN(CC)Cc1cc(Nc2c3ccccc3nc3c4ccccc4n(C)c23)ccc1O`, for which the TGI is 27 µM with MALME-3M melanoma; 17.1 µM with COLO 205 colon; 52.4 µM in the assay on SF-268 CNS; 8.47 µM with MOLT-4 leukemia; 33.4 µM in the assay with SNB-19 CNS; 18.9 µM in the assay with HOP-92 NSCLC. Also, the TGI with NCI-H460 lung was 24.5 µM; with SF-295 CNS, 21.8 µM; in the assay on SF-539 CNS, 10.9 µM; with CAKI-1 renal, 26 µM; with LXFL 529 NSCLC it was 14.7 µM; with HOP-62 NSCLC it was 24.3 µM. In addition, the TGI with NCI-H23 lung was 30.3 µM; in the assay with IGROV1 ovarian, 31.2 µM; in the assay with TK-10 renal it was 28.2 µM; in the assay with K-562 leukemia, 7.65 µM.
